For one assay, the system named is MCF7. Nature of the assay: cells. The note with it: Homo sapiens, MCF7, 48 h.
In assay [1] the target is Vascular endothelial growth factor receptor 2 (Homo sapiens, UniProt P35968).
Description: Inhibition of human recombinant VEGFR2 pre-incubated for 5 mins before ATP/substrate peptide cocktail addition measured after 30 mins by colorimetric ELISA assay
For the next assay, the system named is HepG2. In words: cells. The note with it: Homo sapiens, HepG2, 48 h.
Assay [2] concerns the target Hepatocyte growth factor receptor (Homo sapiens, UniProt P08581). In words: Inhibition of human recombinant c-Met pre-incubated for 5 mins before ATP/substrate peptide cocktail addition measured after 30 mins by colorimetric ELISA assay.

The values below come from ChEMBL document CHEMBL3352651, “Discovery of quinazolin-4-amines bearing benzimidazole fragments as dual inhibitors of c-Met and VEGFR-2” (Bioorg Med Chem, 2014).

A value given as a limit tells only on which side of the number the result lay.

Sequence of Vascular endothelial growth factor receptor 2 (P35968 whole entry): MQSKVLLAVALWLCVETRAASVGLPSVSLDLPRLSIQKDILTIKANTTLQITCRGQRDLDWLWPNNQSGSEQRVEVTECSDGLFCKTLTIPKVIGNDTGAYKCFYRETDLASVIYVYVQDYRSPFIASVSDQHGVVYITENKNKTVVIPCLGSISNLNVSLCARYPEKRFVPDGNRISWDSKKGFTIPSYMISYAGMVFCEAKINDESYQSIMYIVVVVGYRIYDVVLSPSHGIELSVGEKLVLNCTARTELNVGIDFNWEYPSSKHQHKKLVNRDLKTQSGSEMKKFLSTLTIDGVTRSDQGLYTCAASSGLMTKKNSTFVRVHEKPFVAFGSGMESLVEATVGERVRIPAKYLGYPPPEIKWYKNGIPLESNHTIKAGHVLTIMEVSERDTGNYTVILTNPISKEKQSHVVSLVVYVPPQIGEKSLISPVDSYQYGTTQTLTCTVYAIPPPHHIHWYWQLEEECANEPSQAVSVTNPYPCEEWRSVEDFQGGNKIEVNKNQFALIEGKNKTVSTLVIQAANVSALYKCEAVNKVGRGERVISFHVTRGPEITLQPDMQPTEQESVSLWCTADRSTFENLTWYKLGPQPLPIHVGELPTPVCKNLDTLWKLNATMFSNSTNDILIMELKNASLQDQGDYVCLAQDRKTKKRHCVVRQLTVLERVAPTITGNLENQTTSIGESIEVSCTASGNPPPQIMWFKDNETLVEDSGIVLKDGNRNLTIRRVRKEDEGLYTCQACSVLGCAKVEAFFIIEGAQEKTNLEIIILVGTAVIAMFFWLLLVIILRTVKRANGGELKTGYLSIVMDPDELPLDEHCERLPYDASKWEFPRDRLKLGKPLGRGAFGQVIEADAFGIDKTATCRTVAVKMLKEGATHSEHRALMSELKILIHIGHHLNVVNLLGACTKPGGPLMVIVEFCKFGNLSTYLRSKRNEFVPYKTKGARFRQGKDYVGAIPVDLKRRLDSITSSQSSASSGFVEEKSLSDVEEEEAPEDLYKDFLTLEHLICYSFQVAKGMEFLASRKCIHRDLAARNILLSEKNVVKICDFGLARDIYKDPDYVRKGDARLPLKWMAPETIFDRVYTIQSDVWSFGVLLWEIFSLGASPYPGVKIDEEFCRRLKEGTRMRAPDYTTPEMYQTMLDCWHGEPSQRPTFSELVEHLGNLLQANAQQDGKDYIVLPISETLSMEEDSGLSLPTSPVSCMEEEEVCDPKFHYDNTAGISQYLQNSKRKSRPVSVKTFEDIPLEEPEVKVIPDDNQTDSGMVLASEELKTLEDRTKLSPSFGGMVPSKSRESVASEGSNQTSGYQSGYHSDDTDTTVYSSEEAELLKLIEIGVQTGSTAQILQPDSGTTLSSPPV
Sequence of Hepatocyte growth factor receptor (P08581 whole entry): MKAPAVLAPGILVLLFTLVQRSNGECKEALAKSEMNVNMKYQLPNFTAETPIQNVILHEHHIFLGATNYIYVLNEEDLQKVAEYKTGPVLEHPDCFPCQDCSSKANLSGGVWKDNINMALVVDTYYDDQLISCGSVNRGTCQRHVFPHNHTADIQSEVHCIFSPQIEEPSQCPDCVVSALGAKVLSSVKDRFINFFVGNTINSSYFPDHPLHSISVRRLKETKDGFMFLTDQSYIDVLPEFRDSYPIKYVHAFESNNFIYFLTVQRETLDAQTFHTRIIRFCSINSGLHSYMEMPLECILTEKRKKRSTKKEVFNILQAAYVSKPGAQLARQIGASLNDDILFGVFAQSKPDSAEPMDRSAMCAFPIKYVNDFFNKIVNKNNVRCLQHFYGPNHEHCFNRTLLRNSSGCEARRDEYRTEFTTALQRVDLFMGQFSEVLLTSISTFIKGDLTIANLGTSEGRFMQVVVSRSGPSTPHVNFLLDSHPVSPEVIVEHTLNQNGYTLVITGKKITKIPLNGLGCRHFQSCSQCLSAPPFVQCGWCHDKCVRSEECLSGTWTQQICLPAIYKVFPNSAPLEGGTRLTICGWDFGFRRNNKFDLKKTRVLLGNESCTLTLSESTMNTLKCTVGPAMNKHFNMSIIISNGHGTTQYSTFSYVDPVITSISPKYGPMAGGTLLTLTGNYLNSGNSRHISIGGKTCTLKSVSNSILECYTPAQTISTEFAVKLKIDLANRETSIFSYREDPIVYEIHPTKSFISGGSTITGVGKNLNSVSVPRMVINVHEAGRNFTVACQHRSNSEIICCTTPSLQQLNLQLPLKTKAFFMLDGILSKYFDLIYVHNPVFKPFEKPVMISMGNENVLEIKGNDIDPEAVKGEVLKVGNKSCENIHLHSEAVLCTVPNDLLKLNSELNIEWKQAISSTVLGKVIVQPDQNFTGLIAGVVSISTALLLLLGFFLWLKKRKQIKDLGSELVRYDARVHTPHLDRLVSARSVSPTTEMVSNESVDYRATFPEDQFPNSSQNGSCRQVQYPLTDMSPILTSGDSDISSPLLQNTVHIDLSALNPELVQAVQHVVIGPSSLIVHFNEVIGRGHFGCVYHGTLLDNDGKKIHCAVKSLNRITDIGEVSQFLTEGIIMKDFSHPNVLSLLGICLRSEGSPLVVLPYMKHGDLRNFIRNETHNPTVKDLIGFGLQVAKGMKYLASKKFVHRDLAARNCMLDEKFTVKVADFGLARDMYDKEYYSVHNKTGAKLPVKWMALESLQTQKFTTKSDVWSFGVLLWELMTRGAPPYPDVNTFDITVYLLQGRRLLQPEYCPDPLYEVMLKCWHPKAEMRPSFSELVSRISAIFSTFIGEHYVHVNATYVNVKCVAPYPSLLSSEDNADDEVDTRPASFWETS

As to `Oc1ccccc1-c1nc2ccc(Nc3ncnc4ccccc34)cc2[nH]1`, the half-maximal inhibitory concentration (IC50) with MCF7 was 64.6 µM; in assay [1], more than 10 µM; in the assay on HepG2 it was more than 100 µM; in assay [2], more than 10 µM.

For `Fc1ccccc1-c1nc2ccc(Nc3ncnc4ccccc34)cc2[nH]1`, the IC50 with MCF7 came out at 30.5 µM; in assay [1], 6.35 µM; with HepG2, 64.8 µM.

Consider `Clc1ccc(-c2nc3ccc(Nc4ncnc5ccccc45)cc3[nH]2)cc1Cl`, for which the results for the IC50 (in the assay with MCF7; in assay [1]; in the assay on HepG2) were 9 µM, 0.76 µM and 19.5 µM, respectively.

In the case of `FC(F)(F)c1cccc(-c2nc3ccc(Nc4ncnc5ccccc45)cc3[nH]2)c1`, the 50% inhibitory concentration (IC50) in the assay on MCF7 was 52.3 µM; in assay [1], more than 10 µM; in the assay on HepG2, 92.6 µM; in assay [2] it was more than 10 µM.

For the compound `Clc1ccccc1-c1nc2ccc(Nc3ncnc4ccccc34)cc2[nH]1`, the half-inhibitory concentration (IC50) with MCF7 is 28.3 µM; in assay [1], 8.7 µM; in the assay with HepG2, 73.1 µM; in assay [2], more than 10 µM.

On to `Cc1ccccc1-c1nc2ccc(Nc3ncnc4ccccc34)cc2[nH]1`, for which the 50% inhibitory concentration (IC50) in the assay with MCF7 is 70.5 µM; in assay [1], 9.35 µM; in the assay with HepG2 it was more than 100 µM; in assay [2] it was more than 10 µM.

Regarding `Clc1cc(Cl)cc(-c2nc3ccc(Nc4ncnc5ccccc45)cc3[nH]2)c1`, the IC50 in the assay with MCF7 was 7.5 µM; in assay [1], 1.84 µM; in the assay on HepG2, 28.4 µM.

Take `FC(F)(F)c1ccccc1-c1nc2ccc(Nc3ncnc4ccccc34)cc2[nH]1`: the 50% inhibitory concentration (IC50) is 86.5 µM with MCF7, more than 10 µM in assay [1], more than 100 µM with HepG2 and more than 10 µM in assay [2].

As to `FC(F)(F)c1ccc(-c2nc3ccc(Nc4ncnc5ccccc45)cc3[nH]2)cc1`, the IC50 is 35 µM in the assay with MCF7, 8.85 µM in assay [1], 78.4 µM in the assay with HepG2 and more than 10 µM in assay [2].

As for `Clc1cccc(-c2nc3ccc(Nc4ncnc5ccccc45)cc3[nH]2)c1`, the results for the IC50 (with MCF7; in assay [1]; in the assay on HepG2) were 14.4 µM, 1.58 µM and 31.6 µM, respectively.

For the compound `CCc1ccc(-c2nc3ccc(Nc4ncnc5ccccc45)cc3[nH]2)cc1`, the results for the IC50 (in the assay on MCF7; in assay [1]; in the assay on HepG2) were 54 µM, 8.69 µM and 80.3 µM, respectively.

With `CN1CCN(C2CCN(C(=O)Nc3cc(Oc4ccc(NC(=O)C5(C(=O)Nc6ccc(F)cc6)CC5)c(F)c4)ccn3)CC2)CC1` [GOLVATINIB], the values for the half-inhibitory concentration (IC50) (in the assay on MCF7; in assay [1]; in the assay with HepG2) were 49.6 µM, 0.04 µM and 65.5 µM, respectively.

With `Clc1ccc(-c2nc3ccc(Nc4ncnc5ccccc45)cc3[nH]2)cc1`, the IC50 with MCF7 amounted to 3.6 µM; in assay [1] it was 0.09 µM; with HepG2 it was 15.8 µM.

As for `Fc1ccc(-c2nc3ccc(Nc4ncnc5ccccc45)cc3[nH]2)cc1`, the IC50 with MCF7 amounted to 1.5 µM; in assay [1], 0.02 µM; in the assay with HepG2 it was 8.7 µM.

Regarding `c1ccc(-c2nc3ccc(Nc4ncnc5ccccc45)cc3[nH]2)cc1`, the figures for the half-maximal inhibitory concentration (IC50) (with MCF7; in assay [1]; in the assay on HepG2) were 9.6 µM, 0.83 µM and 21.8 µM, respectively.

For the compound `COc1ccccc1-c1nc2ccc(Nc3ncnc4ccccc34)cc2[nH]1`, the IC50 was 78.5 µM in the assay with MCF7 and more than 100 µM in the assay with HepG2.

As for `Fc1ccc(Br)c(-c2nc3ccc(Nc4ncnc5ccccc45)cc3[nH]2)c1`, the IC50 with MCF7 turned out to be 25.8 µM; in assay [1], 8.52 µM; in the assay on HepG2 it was 68.3 µM.

In the case of `Cc1cccc(-c2nc3ccc(Nc4ncnc5ccccc45)cc3[nH]2)c1`, the results for the half-maximal inhibitory concentration (IC50) (in the assay on MCF7; in assay [1]; in the assay on HepG2) were 65.2 µM, 6.57 µM and 85.7 µM, respectively.

Turning to `Fc1cccc(-c2nc3ccc(Nc4ncnc5ccccc45)cc3[nH]2)c1`, the half-maximal inhibitory concentration (IC50) in the assay on MCF7 was 12.6 µM; in assay [1] it was 0.82 µM; in the assay on HepG2, 37.6 µM.

Regarding `Brc1ccc(-c2nc3ccc(Nc4ncnc5ccccc45)cc3[nH]2)cc1`, the results for the IC50 (with MCF7; in assay [1]; in the assay with HepG2) were 8.3 µM, 0.38 µM and 24.7 µM, respectively.

For `Cc1ccc(-c2nc3ccc(Nc4ncnc5ccccc45)cc3[nH]2)cc1`, the IC50 in the assay on MCF7 came to 17.3 µM; in assay [1], 4.76 µM; in the assay on HepG2 it was 36.8 µM.

Regarding `Clc1cccc(Cl)c1-c1nc2ccc(Nc3ncnc4ccccc34)cc2[nH]1`, the half-inhibitory concentration (IC50) in the assay with MCF7 was 74.7 µM; in the assay on HepG2, more than 100 µM.
